Four compounds from patent US4983328A, “N-(4-(3-aminopropyl)aminobutyl)-2-(ω-gua nidino-fatty-acid-amido(-2-substituted-ethanamide, salt thereof, and process for preparation thereof” (Bristol-Myers Company, priority 1981, dated 1991) can be followed below.

Data set [1] is described as follows: acute toxicity in mice (single intraperitoneal administration). The note with it: mouse, in vivo, ip, read-out: LD50 (median lethal dose on single administration). Here is the method:
In Table 8 median lethal doses (LD50) of typical compounds of this invention are shown, measured in mice upon single intraperitoneal administration, as well as maximum tolerated doses in terms of total dose when a fixed amount per unit body weight was administered intraperitoneally to mice once a day for 6 consecutive days.
*Median lethal dose on single administration.

Data set [2] in a line: chemical stability: retention (%) after heating at 60° C. for 4 hours, by HPLC. Format: physicochemical. Here is the method:
The chemical stability of the present compound was evaluated by determining the retention (%) after heating at 60° C. for 4 hours. In Table 5 are shown the test results together with those for spergualin as reference. The retention was determined by means of high performance liquid chromatography (HPLC). The column was packed with Nucleosil® 5C18. The solvent used for spergualin was a mixture (6:94) of acetonitrile -0.01M sodium pentanesulfonate +0.01M Na2 HPO4 (pH 3), while that for the compounds of this invention was a mixture of acetonitrile -0.005M sodium pentanesulfonate ±0.01M Na2 HPO4 (pH 3). The mixture ratio in the latter case was varied for each particular compound. For instance, a mixing ratio of 10:90 was used for Compound No. 9, while that of 7:93 for Compound No. 22.

A short description of data set [3]: cumulative toxicity in mice (maximum tolerated dose, once a day for 6 consecutive days). As to conditions: mouse, in vivo, ip, i.p. once a day for 6 consecutive days, total dose, read-out: Maximum Tolerated Dose (total dose not causing death). A digest of the protocol:
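Mice dosed intraperitoneally once a day for 6 consecutive days with a fixed amount per unit body weight. The value is the maximum total dose not causing death.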

The test system of data set [4] is mouse leukemia L-1210 cells. The data set can be described thus: growth inhibitory activity to cancer cells in vitro (L-1210, 48 hours). In kind it is cell-based. As to conditions: for inhibition at 5 µg/mL: L1210, 5 mcg/ml; for inhibition at 10 µg/mL: L1210, 10 mcg/ml; for inhibition at 20 µg/mL: L1210, 20 mcg/ml; for inhibition at 40 µg/mL: L1210, 40 mcg/ml; for IC50: L1210, L-1210 cells, read-out: 50% inhibitory concentration; for inhibition at 2.5 µg/mL: L1210, 2.5 mcg/ml. A digest of the protocol: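 L-1210 cells from DBA/2 mouse ascites, cultured at 5×10^4 cells per well in RPMI 1640 with 10% FCS and 5 μM 2-mercaptoethanol, 37° C, CO2, for 48 h with compound. Cell counts by Coulter Counter gave % inhibition (1−T/C)×100, and IC50 was derived across concentrations.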

[5] abbreviates: read-out: Growth inhibition (%), (1-T/C) × 100.

SMILES strings stand for the structures. Converted amounts (≈) assume the structure as drawn. Where two headings read alike, the source gives them in different places.

A word on the share remaining: it is what is left of the initial amount, in per cent. Consider `N=C(N)NCCCCCCC(=O)NC(OCCO)C(=O)NCCCCNCCCN` (stereo not drawn) [Compound 14, N-[4-(3-aminopropyl)aminobutyl]-2-(7-guanidinoheptanamido)-2-(2-hydroxy)ethoxyethanamide], for which the LD50 in data set [1] (mice, single i.p.) lay in the range of 25 to 50 mg/kg. The fraction remaining at 4 h in data set [2] (pH 2, pH 2) was found to be 71.8%; in data set [2] (pH 3, pH 3) it was 90.6%; in data set [2] (pH 4, pH 4), 100%; in data set [2] (pH 6, pH 6), 100%; in data set [2] (pH 8, pH 8), 100%; in data set [2] (pH 9, pH 9), 97.5%. This compound also displayed a fraction remaining at 4 h in data set [2] (pH 10, pH 10) of 97.3%. In addition, the MTD in data set [3] was more than 150 mg/kg. For the same compound, the inhibition at 5 µg/mL in data set [4] (setting [5]) was 22.3%. The inhibition at 10 µg/mL in data set [4] (setting [5]) stood at 24.6%. The inhibition at 20 µg/mL in data set [4] (setting [5]) stood at 29.9%. For the same compound, in data set [4] (setting [5]), the inhibition at 40 µg/mL turned out to be 42.7%. For the same compound, in data set [4] (L1210, 80 mcg/ml, read-out: Growth inhibition (%), (1-T/C) × 100), the inhibition at 80 µg/mL worked out at 58.6%. The IC50 in data set [4] came out at 52 µg/mL (≈ 120 µM).
Regarding `CCCCOC(NC(=O)C[C@@H](O)CCCCNC(=N)N)C(=O)NCCCCNCCCN` (stereo partly drawn) [Compound 24, N-[4-(3-aminopropyl)aminobutyl]-2-(7-guanidino-3-hydroxyheptanamido)-2-butoxyethanamide], the LD50 in data set [1] (mice, single i.p.) was more than 50 mg/kg. The amount remaining at 4 h in data set [2] (pH 2, pH 2) amounted to 76.3%; in data set [2] (pH 4, pH 4), 100%; in data set [2] (pH 5, pH 5), 100%; in data set [2] (pH 6, pH 6), 100%; in data set [2] (pH 7, pH 7), 100%; in data set [2] (pH 8, pH 8), 100%. The fraction remaining at 4 h was determined as 97.1% in data set [2] (pH 9, pH 9) and 94.8% in data set [2] (pH 10, pH 10). Moreover, the MTD in data set [3] was more than 300 mg/kg. In addition, the inhibition at 2.5 µg/mL in data set [4] (setting [5]) was 47.3%. For the same compound, the inhibition at 5 µg/mL in data set [4] (setting [5]) is 75.6%. Moreover, the inhibition at 10 µg/mL in data set [4] (setting [5]) worked out at 89.5%. The inhibition at 20 µg/mL in data set [4] (setting [5]) worked out at 95%. Moreover, the inhibition at 40 µg/mL in data set [4] (setting [5]) stood at 97.2%. Moreover, the IC50 in data set [4] amounted to 2.6 µg/mL (≈ 5.66 µM).
For the compound `N=C(N)NCCCC[C@H](O)CC(=O)NC(OCc1ccccc1)C(=O)NCCCCNCCCN` (stereo partly drawn) [Compound 26, N-[4-(3-aminopropyl)aminobutyl]-2-(7-guanidino-3-hydroxyheptanamido)-2-benzyloxyethanamide], the LD50 in data set [1] was 12.5 to 25 mg/kg. In addition, the fraction remaining at 4 h in data set [2] (pH 2, pH 2) was determined as 77.2%; in data set [2] (pH 4, pH 4), 100%; in data set [2] (pH 5, pH 5), 100%; in data set [2] (pH 6, pH 6) it was 100%; in data set [2] (pH 7, pH 7), 100%; in data set [2] (pH 8, pH 8) it was 100%. The amount remaining at 4 h turned out to be 95.9% in data set [2] (pH 9, pH 9) and 94.5% in data set [2] (pH 10, pH 10). Also, the MTD in data set [3] is more than 75 mg/kg. Also, the inhibition at 2.5 µg/mL in data set [4] (setting [5]) turned out to be 54.2%. In addition, in data set [4] (setting [5]), the inhibition at 5 µg/mL came out at 79%. Moreover, in data set [4] (setting [5]), the inhibition at 10 µg/mL amounted to 90.2%. Besides, in data set [4] (setting [5]), the inhibition at 20 µg/mL is 96.6%. Besides, in data set [4] (setting [5]), the inhibition at 40 µg/mL amounted to 97.3%. The IC50 in data set [4] came to 2.2 µg/mL (≈ 4.46 µM).
Consider `N=C(N)NCCCCCCC(=O)NC(OCc1ccccc1)C(=O)NCCCCNCCCN` (stereo not drawn) [Compound 15, N-[4-(3-aminopropyl)aminobutyl]-2-(7-guanidinoheptanamido)-2-benzyloxyethanamide], for which the LD50 in data set [1] (mice, single i.p.) was 12.5 to 25 mg/kg. Also, the amount remaining at 4 h in data set [2] (pH 2, pH 2) was determined as 76.5%; in data set [2] (pH 3, pH 3), 91.4%; in data set [2] (pH 4, pH 4), 100%; in data set [2] (pH 6, pH 6), 100%; in data set [2] (pH 8, pH 8) it was 100%; in data set [2] (pH 9, pH 9), 99%. Also, the fraction remaining at 4 h in data set [2] (pH 10, pH 10) amounted to 96.2%. Also, the MTD in data set [3] was more than 75 mg/kg. For the same compound, the inhibition at 1.25 µg/mL in data set [4] (L1210, 1.25 mcg/ml, read-out: Growth inhibition (%), (1-T/C) × 100) is 27.1%. Besides, the inhibition at 2.5 µg/mL in data set [4] (setting [5]) amounted to 39%. For the same compound, the inhibition at 5 µg/mL in data set [4] (setting [5]) worked out at 71%. For the same compound, the inhibition at 10 µg/mL in data set [4] (setting [5]) amounted to 94.5%. Moreover, the inhibition at 20 µg/mL in data set [4] (setting [5]) is 97.7%. For the same compound, the inhibition at 40 µg/mL in data set [4] (setting [5]) stood at 100%. In addition, the IC50 in data set [4] is 3.1 µg/mL (≈ 6.49 µM).
